# Measured values: paper PMC11352859, “Functionalized Congeners of 2H-Chromene P2Y6 Receptor Antagonists” (Cells, 2024)
# Experiments:
# [1] = tested on: hP2Y6R-1321N1 human astrocytoma cells; assay: MTT cell viability assay, hP2Y6R-1321N1 astrocytoma cells; assay type: cell-based; settings: for % survival: P2Y6R-astrocytoma, 12 h, MTT
# Experimental: (§1) The 1321N1 astrocytoma (hP2Y6R-overexpressing) and HeLa (non-transfected) cell lines were cultured in Dulbecco’s modified Eagle’s medium (DMEM, HyClone, Logan, UT, USA) supplemented with 5% heat-inactivated fetal bovine serum (FBS, HyClone, UT, USA), 100 U/mL penicillin, and 100 µg/mL streptomycin in 5% CO2 at 37 °C. The cell viability was determined using an MTT kit (Sigma, St. Louis, MO, USA) according to the manufacturer’s instructions. Briefly, 1 × 10^4 cells were seeded in triplicate in 96-well plates. The hP2Y6R-astrocytoma and HeLa cells were treated with a P2Y6R agonist and antagonists at a range of concentrations and incubated for 12 h. The cell viability was measured at 490 nm using a SpectraMax-M5 Spectrometer (Molecular Devices, San Jose, CA, USA).
# [2] = tested on: HeLa cells; assay: MTT cell viability assay, HeLa cells; assay type: cell-based, human; settings: for % survival: 12 h, MTT
# Experimental: as §1
# [3] = target: T1, hP2Y14R (Homo sapiens, UniProt Q15391); assay: whole-cell binding of fluorescent antagonist MRS4174 in CHO-hP2Y14R cells (flow cytometry)
# T1 construct: expressed in transfected cells
# T1 sequence (Q15391 1-338): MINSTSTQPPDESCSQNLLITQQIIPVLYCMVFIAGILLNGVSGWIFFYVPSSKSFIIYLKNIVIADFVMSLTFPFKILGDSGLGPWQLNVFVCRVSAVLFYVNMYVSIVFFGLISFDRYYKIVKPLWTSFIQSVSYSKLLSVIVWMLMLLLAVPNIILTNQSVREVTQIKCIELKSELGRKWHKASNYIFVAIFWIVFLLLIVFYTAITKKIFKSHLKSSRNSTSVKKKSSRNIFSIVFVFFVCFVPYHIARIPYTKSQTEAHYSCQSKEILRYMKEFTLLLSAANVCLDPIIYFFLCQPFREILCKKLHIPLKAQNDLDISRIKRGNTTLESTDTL
structure (smiles),measurement,setting,value
"CC(C)(C)OC(=O)NCCCCCCCC#Cc1ccc2c(c1)C=C([N+](=O)[O-])C(C(F)(F)F)O2 (stereo not drawn) [Compound 30, tert-Butyl (9-(3-nitro-2-(trifluoromethyl)-2H-chromen-6-yl)non-8-yn-1-yl)carbamate]",% survival,[1]; 0.05 µM,98%
same,% survival,[1]; 0.1 µM,98%
same,% survival,[1]; 0.5 µM,83%
same,% survival,[1]; 1 µM,77%
same,inhibition of viability,"[1]; hP2Y6R-1321N1 cells, at 1 µM, 12 h exposure",23%
same,% survival,[2]; 0.05 µM,94%
same,% survival,[2]; 0.1 µM,94%
same,% survival,[2]; 0.5 µM,87%
same,% survival,[2]; 1 µM,71%
same,inhibition of viability,"[2]; at 1 µM, 12 h exposure",29%
same,IC50,"[3]; CHO-hP2Y14, competitive binding, flow cytometer",21.4 ± 5.8 µM
same,fold selective compared to the hP2Y14R,[3]; hP2Y6R vs hP2Y14R,132 fold
